According to ChEMBL document CHEMBL5236651, “Synthesis and antibacterial activity of novel 2‑fluoro ketolide antibiotics with 11,12‑quinoylalkyl side chains” (2023):
In brackets after ≈: the same amount, converted by molar mass.

Legend:
Assay type in all cases: functional
Klebsiella pneumoniae [1] = experiment: Antibacterial activity against ESBL positive Klebsiella pneumoniae ATCC 700603 assessed as inhibition of bacterial growth by CLSI based micro broth double dilution method
Klebsiella pneumoniae [2] = experiment: Antibacterial activity against ESBL negative Klebsiella pneumoniae 7 assessed as inhibition of bacterial growth by CLSI based micro broth double dilution method
Klebsiella pneumoniae [3] = experiment: Antibacterial activity against ESBL negative Klebsiella pneumoniae 16-2 assessed as inhibition of bacterial growth by CLSI based micro broth double dilution method
Streptococcus pyogenes [4] = experiment: Antibacterial activity against erythromycin-sensitive Streptococcus pyogenes ATCC 19615 assessed as inhibition of bacterial growth by CLSI based micro broth double dilution method
Streptococcus pyogenes [5] = experiment: Antibacterial activity against erythromycin-resistant Streptococcus pyogenes 12-1 assessed as inhibition of bacterial growth by CLSI based micro broth double dilution method
Enterococcus faecalis [6] = experiment: Antibacterial activity against vancomycin-sensitive Enterococcus faecalis […] assessed as inhibition of bacterial growth by CLSI based micro broth double dilution method
Enterococcus faecalis [7] = experiment: Antibacterial activity against vancomycin-sensitive Enterococcus faecalis 16-6 assessed as inhibition of bacterial growth by CLSI based micro broth double dilution method
Enterococcus faecalis [8] = experiment: Antibacterial activity against vancomycin-resistant Enterococcus faecalis ATCC 51575 assessed as inhibition of bacterial growth by CLSI based micro broth double dilution method
Enterococcus faecalis [9] = experiment: Antibacterial activity against vancomycin-resistant Enterococcus faecalis ATCC 51299 assessed as inhibition of bacterial growth by CLSI based micro broth double dilution method
Streptococcus pneumoniae [10] = experiment: Antibacterial activity against erythromycin-sensitive Streptococcus pneumoniae ATCC 49619 assessed as inhibition of bacterial growth by CLSI based micro broth double dilution method
Streptococcus pneumoniae [11] = experiment: Antibacterial activity against erythromycin-resistant Streptococcus pneumoniae 12-3 assessed as inhibition of bacterial growth by CLSI based micro broth double dilution method
Escherichia coli [12] = experiment: Antibacterial activity against ESBL-negative Escherichia coli ATCC 25922 assessed as inhibition of bacterial growth by CLSI based micro broth double dilution method
Escherichia coli [13] = experiment: Antibacterial activity against Escherichia coli 16-7 assessed as inhibition of bacterial growth by CLSI based micro broth double dilution method
Escherichia coli [14] = experiment: Antibacterial activity against ESBL-positive Escherichia coli ATCC 35218 assessed as inhibition of bacterial growth by CLSI based micro broth double dilution method
[15] = system: Staphylococcus epidermidis; experiment: Antibacterial activity against methicillin-sensitive Staphylococcus epidermidis ATCC 12228 assessed as inhibition of bacterial growth by CLSI based micro broth double dilution method
[16] = system: Staphylococcus epidermidis; experiment: Antibacterial activity against methicillin-sensitive Staphylococcus epidermidis 16-4 assessed as inhibition of bacterial growth by CLSI based micro broth double dilution method
Staphylococcus aureus [17] = experiment: Antibacterial activity against methicillin-sensitive Staphylococcus aureus ATCC 29213 assessed as inhibition of bacterial growth by CLSI based micro broth double dilution method
Staphylococcus aureus [18] = experiment: Antibacterial activity against methicillin-sensitive Staphylococcus aureus 15 assessed as inhibition of bacterial growth by CLSI based micro broth double dilution method
Staphylococcus aureus [19] = experiment: Antibacterial activity against methicillin-sensitive Staphylococcus aureus 16-1 assessed as inhibition of bacterial growth by CLSI based micro broth double dilution method
Pseudomonas aeruginosa [20] = experiment: Antibacterial activity against Pseudomonas aeruginosa ATCC 27853 assessed as inhibition of bacterial growth by CLSI based micro broth double dilution method
Pseudomonas aeruginosa [21] = experiment: Antibacterial activity against Pseudomonas aeruginosa PAO1 assessed as inhibition of bacterial growth by CLSI based micro broth double dilution method
Pseudomonas aeruginosa [22] = experiment: Antibacterial activity against Pseudomonas aeruginosa 16-11 assessed as inhibition of bacterial growth by CLSI based micro broth double dilution method

Row | SMILES | MIC (Klebsiella pneumoniae [1]) [µg/mL] | MIC (Klebsiella pneumoniae [2]) [µg/mL] | MIC (Klebsiella pneumoniae [3]) [µg/mL] | MIC (Streptococcus pyogenes [4]) [µg/mL] | MIC (Streptococcus pyogenes [5]) [µg/mL] | MIC (Enterococcus faecalis [6]) [µg/mL] | MIC (Enterococcus faecalis [7]) [µg/mL] | MIC (Enterococcus faecalis [8]) [µg/mL] | MIC (Enterococcus faecalis [9]) [µg/mL] | MIC (Streptococcus pneumoniae [10]) [µg/mL] | MIC (Streptococcus pneumoniae [11]) [µg/mL] | MIC (Escherichia coli [12]) [µg/mL] | MIC (Escherichia coli [13]) [µg/mL] | MIC (Escherichia coli [14]) [µg/mL] | MIC [15] [µg/mL] | MIC [16] [µg/mL] | MIC (Staphylococcus aureus [17]) [µg/mL] | MIC (Staphylococcus aureus [18]) [µg/mL] | MIC (Staphylococcus aureus [19]) [µg/mL] | MIC (Pseudomonas aeruginosa [20]) [µg/mL] | other results
1 | CC[C@H]1OC(=O)[C@@](C)(F)C(=O)[C@H](C)[C@@H](O[C@@H]2O[C@H](C)C[C@H](N(C)C)[C@H]2O)[C@@](C)(OC)C[C@@H](C)C(=O)[C@H](C)[C@H]2N(CCCOc3ccnc4ccccc34)C(=O)O[C@]12C | > 32 | > 32 | > 32 | 0.25 (≈ 0.306 µM) | 16 (≈ 19.6 µM) | 0.5 (≈ 0.613 µM) | > 32 | > 32 | > 32 | 0.25 (≈ 0.306 µM) | 32 (≈ 39.2 µM) | > 32 | > 32 | > 32 | 0.5 (≈ 0.613 µM) | 1 (≈ 1.23 µM) | 1 (≈ 1.23 µM) | 1 (≈ 1.23 µM) | 0.5 (≈ 0.613 µM) | > 32 | MIC (Pseudomonas aeruginosa [21]): > 32 µg/mL; MIC (Pseudomonas aeruginosa [22]): > 32 µg/mL
2 | CC[C@H]1OC(=O)[C@H](C)C(=O)[C@H](C)[C@@H](O[C@@H]2O[C@H](C)C[C@H](N(C)C)[C@H]2O)[C@](C)(OC)C[C@@H](C)C(=O)[C@H](C)[C@H]2N(CCCCn3cnc(-c4cccnc4)c3)C(=O)O[C@]12C [TELITHROMYCIN] | > 64 | > 64 | > 64 | 0.06 (≈ 0.0739 µM) | 64 (≈ 78.8 µM) | 0.12 (≈ 0.148 µM) | 16 (≈ 19.7 µM) | 16 (≈ 19.7 µM) | 16 (≈ 19.7 µM) | 0.03 (≈ 0.0369 µM) | 0.06 (≈ 0.0739 µM) | 64 (≈ 78.8 µM) | > 64 | > 64 | 0.25 (≈ 0.308 µM) | 1 (≈ 1.23 µM) | 0.25 (≈ 0.308 µM) | 0.25 (≈ 0.308 µM) | 0.25 (≈ 0.308 µM) | > 64 | MIC (Pseudomonas aeruginosa [21]): > 64 µg/mL; MIC (Pseudomonas aeruginosa [22]): > 64 µg/mL
3 | CC[C@H]1OC(=O)[C@@](C)(F)C(=O)[C@H](C)[C@@H](O[C@@H]2O[C@H](C)C[C@H](N(C)C)[C@H]2O)[C@@](C)(OC)C[C@@H](C)C(=O)[C@H](C)[C@H]2N(CCCN(C(=O)/C=C/c3ccccc3)c3ccnc4ccccc34)C(=O)O[C@]12C | 32 (≈ 33.9 µM) | > 32 | > 32 | 0.5 (≈ 0.529 µM) | 8 (≈ 8.46 µM) | 0.5 (≈ 0.529 µM) | > 32 | > 32 | > 32 | ≤ 0.016 | 0.5 (≈ 0.529 µM) | > 32 | > 32 | > 32 | 1 (≈ 1.06 µM) | 1 (≈ 1.06 µM) | 1 (≈ 1.06 µM) | 1 (≈ 1.06 µM) | 0.5 (≈ 0.529 µM) | > 32 | MIC (Pseudomonas aeruginosa [21]): > 32 µg/mL; MIC (Pseudomonas aeruginosa [22]): > 32 µg/mL
4 | CC[C@H]1OC(=O)[C@@](C)(F)C(=O)[C@H](C)[C@@H](O[C@@H]2O[C@H](C)C[C@H](N(C)C)[C@H]2O)[C@@](C)(OC)C[C@@H](C)C(=O)[C@H](C)[C@H]2N(CCCNc3cnc4ccccc4c3)C(=O)O[C@]12C | > 32 | > 32 | > 32 | 0.12 (≈ 0.147 µM) | 32 (≈ 39.3 µM) | 0.06 (≈ 0.0736 µM) | > 32 | > 32 | > 32 | ≤ 0.016 | ≤ 0.016 | 16 (≈ 19.6 µM) | 32 (≈ 39.3 µM) | 32 (≈ 39.3 µM) | 0.12 (≈ 0.147 µM) | 0.12 (≈ 0.147 µM) | 0.12 (≈ 0.147 µM) | 0.12 (≈ 0.147 µM) | 0.12 (≈ 0.147 µM) | 32 (≈ 39.3 µM) | MIC (Pseudomonas aeruginosa [21]): 16 µg/mL (≈ 19.6 µM); MIC (Pseudomonas aeruginosa [22]): 32 µg/mL (≈ 39.3 µM)
5 | CC[C@H]1OC(=O)[C@@](C)(F)C(=O)[C@H](C)[C@@H](O[C@@H]2O[C@H](C)C[C@H](N(C)C)[C@H]2O)[C@@](C)(OC)C[C@@H](C)C(=O)[C@H](C)[C@H]2N(CCCN(C(=O)c3ccccc3)c3cnc4ccccc4c3)C(=O)O[C@]12C | > 32 | > 32 | > 32 | 0.03 (≈ 0.0326 µM) | 32 (≈ 34.8 µM) | 0.12 (≈ 0.131 µM) | > 32 | > 32 | > 32 | ≤ 0.016 | 0.06 (≈ 0.0653 µM) | > 32 | > 32 | > 32 | 0.12 (≈ 0.131 µM) | 1 (≈ 1.09 µM) | 0.25 (≈ 0.272 µM) | 0.25 (≈ 0.272 µM) | 0.25 (≈ 0.272 µM) | > 32 | MIC (Pseudomonas aeruginosa [21]): > 32 µg/mL; MIC (Pseudomonas aeruginosa [22]): > 32 µg/mL
6 | CC[C@H]1OC(=O)[C@@](C)(F)C(=O)[C@H](C)[C@@H](O[C@@H]2O[C@H](C)C[C@H](N(C)C)[C@H]2O)[C@@](C)(OC)C[C@@H](C)C(=O)[C@H](C)[C@H]2N(CCCNc3ccnc4ccccc34)C(=O)O[C@]12C | 32 (≈ 39.3 µM) | 8 (≈ 9.82 µM) | 16 (≈ 19.6 µM) | 0.06 (≈ 0.0736 µM) | > 32 | 0.12 (≈ 0.147 µM) | > 32 | > 32 | > 32 | ≤ 0.016 | 0.06 (≈ 0.0736 µM) | 4 (≈ 4.91 µM) | 8 (≈ 9.82 µM) | 8 (≈ 9.82 µM) | 0.06 (≈ 0.0736 µM) | 0.25 (≈ 0.307 µM) | 0.12 (≈ 0.147 µM) | 0.12 (≈ 0.147 µM) | 0.12 (≈ 0.147 µM) | > 32 | MIC (Pseudomonas aeruginosa [21]): > 32 µg/mL; MIC (Pseudomonas aeruginosa [22]): > 32 µg/mL
7 | CC[C@H]1OC(=O)[C@@](C)(F)C(=O)[C@H](C)[C@@H](O[C@@H]2O[C@H](C)C[C@H](N(C)C)[C@H]2O)[C@@](C)(OC)C[C@@H](C)C(=O)[C@H](C)[C@H]2N(CCCN(Cc3ccccc3)c3ccnc4ccccc34)C(=O)O[C@]12C | > 32 | > 32 | > 32 | 0.25 (≈ 0.276 µM) | 16 (≈ 17.7 µM) | 2 (≈ 2.21 µM) | > 32 | > 32 | > 32 | ≤ 0.016 | 0.12 (≈ 0.133 µM) | > 32 | > 32 | > 32 | 0.25 (≈ 0.276 µM) | 2 (≈ 2.21 µM) | 1 (≈ 1.1 µM) | 1 (≈ 1.1 µM) | 1 (≈ 1.1 µM) | > 32 | MIC (Pseudomonas aeruginosa [21]): > 32 µg/mL; MIC (Pseudomonas aeruginosa [22]): > 32 µg/mL
